Values quoted from earlier work as cited in US20230346789A1, “METHODS OF TREATING ENHANCING BRAIN TUMORS USING COMBINATION THERAPY” (MSD International GmbH, priority 2022, published 2023).
Like-named read-outs stand apart in the source and are kept apart here.

Assays:
[1] = tested on: Recurrent or Progressive Glioma; settings: monotherapy

For C[C@@H](Nc1nc(N[C@H](C)C(F)(F)F)nc(-c2cccc(Cl)n2)n1)C(F)(F)F [vorasidenib, 6-(6-chloropyridin-2-yl)-N^2,N^4-bis((R)-1,1,1-trifluoropropan-2-yl)-1,3,5-triazine-2,4-diamine], the clinical efficacy ([1]; patients with non-enhancing gliomas) is listed as “clinical activity and prolonged disease control” and the clinical efficacy ([1]; patients with recurrent enhancing gliomas) is listed as “only limited efficacy”.
For “pembrolizumab: humanized immunoglobulin G4 (IgG4) monoclonal antibody blocking the programmed death receptor-1 (PD1)”, the preclinical safety profile is given as “acceptable”.
